The values below come from patent US20250206722A1, “SMALL MOLECULE INHIBITORS OF TEA DOMAIN FAMILY MEMBERS” (The Scripps Research Institute, priority 2022, published 2025).

Experiment [1] deals with transcriptional activity of TEADs. Nature of the experiment: TEAD reporter assay (MCF7 TEAD-LUC reporter cells). The format is cell-based. As to conditions: Homo sapiens, 24 hours, BrightGlo luminescence. How it is done:
MCF7 TEAD-LUC reporter cells were obtained from BPS Bioscience, Inc. and cultured in DMEM medium (Corning, 10-013-CV) supplemented with 10% fetal bovine serum (Gibco, 10438-026), 1% penicillin-streptomycin (Gibco, 15070063), 1% non-essential amino acids (Gibco, 15070063), and 10 μg/mL insulin (Sigma, 10516). Cells were trypsinized, resuspended in growth medium, and diluted to a concentrated of 100,000 cells/mL. 5,000 cells, 50 μL of cell suspension, per well were then plated in a white 384-well plate (Corning) and incubated at 37° C., 5% CO2. After 24 hours incubation, 100 nL of test compounds in DMSO, 20-point 1:2 dilution starting from 20 μM (final concentration) in triplicate, were transferred to each well using an Agilent Bravo instrument outfitted with a pintool head. Cells were incubated at 37° C., 5% CO2 for 24 hours followed by the addition of 30 μL of BrightGlo (Promega; diluted 1:3 in water) to each well and luminescence values recorded using an EnVision plate reader.
The in vitro assay results of the compounds in the present invention were included in Table 1. The compounds described herein, inhibited the transcriptional activity of TEADs, as assessed by decreased luminance from a TEAD reporter cell line (MCF7 TEAD-LUC) in response to compound treatment.

The subject of experiment [2] is NCI-H226 cells. Kind of experiment: NCI-H226 proliferation assay (in house). Format: cell-based. As to conditions: Homo sapiens, 120 h, 5 days, Cell TiterGlo, 20-point 1:2 dilution from 20 μM. How it is done: NCI-H226 Proliferation Assay
NCI-H226 cells were obtained from American Type Culture Collection (ATCC, CRL-5826) and cultured in RPMI 1640 with L-glutamine (Corning, 10-040-CV) supplemented with 10% fetal bovine serum (Gibco, 10438-026) and 1% penicillin-streptomycin (Gibco, 15070063). Cells were trypsinized, resuspended in growth medium, and diluted to a concentrated of 10,000 cells/mL. 500 cells, 50 μL of cell suspension, per well were then plated in a white 384-well plate (Corning) and incubated at 37° C., 5% CO2. After 24 hours incubation, 100 nL of test compounds in DMSO, 20-point 1:2 dilution starting from 20 μM (final concentration) in triplicate, were transferred to each well using an Agilent Bravo instrument outfitted with a pintool head. Cells were incubated at 37° C., 5% CO2 for 5 days followed by the addition of 30 μL of Cell TiterGlo (Promega; diluted 1:6 in water) to each well and luminescence values recorded using an EnVision plate reader. […]

Usually IC50 stands for the concentration at which inhibition is half-maximal. High values mean weaker potency, low ones greater potency.

`C=C(F)C(=O)N1CCC(c2cccnc2Nc2ccc(C(F)(F)F)nc2)CC1` [Example 150, 2-fluoro-1-(4-(2-((6-(trifluoromethyl)pyridin-3-yl)amino)pyridin-3-yl)piperidin-1-yl)prop-2-en-1-one]: the IC50 in experiment [1] is 4.43 µM; in experiment [2], 39.5 µM.
The corresponding values for `C=CC(=O)N1CCC(c2cccnc2Nc2ccc(C(F)(F)F)nc2)CC1` [Example 149, 1-(4-(2-((6-(trifluoromethyl)pyridin-3-yl)amino)pyridin-3-yl)piperidin-1-yl)prop-2-en-1-one] are 0.164 µM and 2.71 µM.
For the compound `C=CC(=O)N1CCN(c2ncccc2C(=O)c2ccc(C(F)(F)F)cn2)CC1` [Example 140, 1-(4-(3-(5-(trifluoromethyl)picolinoyl)pyridin-2-yl)piperazin-1-yl)prop-2-en-1-one], the results for the IC50 in experiment [1] and in experiment [2] were 0.0086 µM and 11.1 µM, respectively.
On the same counts, the results for `C=CC(=O)N1CCC(c2nccnc2Oc2ccc(C(F)(F)F)cn2)CC1` [Example 75, 1-(4-(3-((5-(trifluoromethyl)pyridin-2-yl)oxy)pyrazin-2-yl)piperidin-1-yl)prop-2-en-1-one] are 0.0027 µM and 0.112 µM.
On the same counts, the results for `C=CC(=O)N1CCN(c2nccnc2C(=O)N2CCC(C(F)(F)F)CC2)CC1` [Example 103, 1-(4-(3-(4-(trifluoromethyl)piperidine-1-carbonyl)pyrazin-2-yl)piperazin-1-yl)prop-2-en-1-one] are 0.166 µM and above 20 µM.
The corresponding values for `C=C(CO)C(=O)N1CCN(c2nccnc2Nc2ccc(C(F)(F)F)cc2)CC1` [Example 186, 2-(hydroxymethyl)-1-(4-(3-((4-(trifluoromethyl)phenyl)amino)pyrazin-2-yl)piperazin-1-yl)prop-2-en-1-one] are above 20 µM and above 20 µM.
`C=C(COC(C)=O)C(=O)N1CCN(c2nccnc2Nc2ccc(C(F)(F)F)cc2)CC1` [Example 187, 2-(4-(3-((4-(trifluoromethyl)phenyl)amino)pyrazin-2-yl)piperazine-1-carbonyl)allyl acetate]: the figures for the IC50 in experiment [1] and in experiment [2] were 36.6 µM and 7.41 µM, respectively.
For the compound `C=CC(=O)N1CCN(c2nccnc2Nc2ccc(C(F)(F)F)cc2)C[C@@H]1CCO` [Example 17, (S)-1-(2-(2-hydroxyethyl)-4-(3-((4-(trifluoromethyl)phenyl)amino)pyrazin-2-yl)piperazin-1-yl)prop-2-en-1-one], the figures for the IC50 in experiment [1] and in experiment [2] were above 20 µM and 3.3 µM, respectively.
Consider `C=C(F)C(=O)N1CCC(c2cncnc2Oc2ccc(C(F)(F)F)nc2)CC1` [Example 127, 2-fluoro-1-(4-(4-((6-(trifluoromethyl)pyridin-3-yl)oxy)pyrimidin-5-yl)piperidin-1-yl)prop-2-en-1-one], for which the IC50 in experiment [2] was determined as 66.8 µM.
Regarding `C/C=C/C(=O)N1CCN(c2nccnc2Nc2ccc(C(F)(F)F)nc2)CC1` [Example 178, (E)-1-(4-(3-((6-(trifluoromethyl)pyridin-3-yl)amino)pyrazin-2-yl)piperazin-1-yl)but-2-en-1-one], the IC50 in experiment [1] amounted to 0.0027 µM; in experiment [2], 0.884 µM.
On to `C=C(CF)C(=O)N1CCN(c2nccnc2Nc2ccc(C(F)(F)F)cc2)CC1` [Example 188, 2-(fluoromethyl)-1-(4-(3-((4-(trifluoromethyl)phenyl)amino)pyrazin-2-yl)piperazin-1-yl)prop-2-en-1-one], for which the IC50 in experiment [1] worked out at 0.0023 µM; in experiment [2], 0.013 µM.
On the same counts, the results for `C=C(C(=O)N1CCC(c2nccnc2Oc2ccc(C(F)(F)F)nc2)CC1)C(F)(F)F` [Example 81, 2-(trifluoromethyl)-1-(4-(3-((6-(trifluoromethyl)pyridin-3-yl)oxy)pyrazin-2-yl)piperidin-1-yl)prop-2-en-1-one] are 0.0095 µM and 2.97 µM.
Turning to `C=CC(=O)N1CCN(c2nccnc2Nc2ccc(C(F)(F)F)cc2)C[C@@H]1C(N)=O` [Example 18, (R)-1-acryloyl-4-(3-((4-(trifluoromethyl)phenyl)amino)pyrazin-2-yl)piperazine-2-carboxamide], the IC50 in experiment [1] was 0.134 µM; in experiment [2], 0.701 µM.
As to `C=CC(=O)N1CCN(c2nccnc2Nc2ccc(C(F)F)cn2)CC1` [Example 40, 1-(4-(3-((5-(difluoromethyl)pyridin-2-yl)amino)pyrazin-2-yl)piperazin-1-yl)prop-2-en-1-one], the half-maximal inhibitory concentration (IC50) in experiment [1] is 0.004 µM; in experiment [2] it was above 20 µM.
Turning to `C=CC(=O)N1CCN(c2nccnc2C(=O)NC2CC(F)(F)C2)CC1` [Example 100, 3-(4-acryloylpiperazin-1-yl)-N-(3,3-difluorocyclobutyl)pyrazine-2-carboxamide], the IC50 amounted to 0.074 µM in experiment [1] and 1.18 µM in experiment [2].
On the same counts, the results for `C=CC(=O)N1CCN(c2nccnc2Nc2ccc(C(F)(F)F)cc2)CC1CC(N)=O` (stereo not drawn) [Example 20, 2-(1-acryloyl-4-(3-((4-(trifluoromethyl)phenyl)amino)pyrazin-2-yl)piperazin-2-yl)acetamide] are above 20 µM and 2.73 µM.
The corresponding values for `C=C(F)C(=O)N1CCN(c2nccnc2Nc2cnc(C(F)(F)F)c(F)c2)CC1` [Example 51, 2-fluoro-1-(4-(3-((5-fluoro-6-(trifluoromethyl)pyridin-3-yl)amino)pyrazin-2-yl)piperazin-1-yl)prop-2-en-1-one] are 0.0067 µM and 0.331 µM.
The corresponding values for `C=CC(=O)N1CCN(c2nccnc2Nc2ccc(OCF)cc2)CC1` [Example 36, 1-(4-(3-((4-(fluoromethoxy)phenyl)amino)pyrazin-2-yl)piperazin-1-yl)prop-2-en-1-one] are 0.005 µM and 5.04 µM.
Turning to `C=C(F)C(=O)N1CC=C(c2cccnc2Nc2ccc(C(F)(F)F)nc2)CC1` [Example 146, 2-fluoro-1-(2-((6-(trifluoromethyl)pyridin-3-yl)amino)-3′,6′-dihydro-[3,4′-bipyridin]-1′(2′H)-yl)prop-2-en-1-one], the IC50 in experiment [1] is 0.0235 µM; in experiment [2], 0.158 µM.
For the compound `C=CC(=O)N1CCC(c2ncc(C)nc2Oc2ccc(C(F)(F)F)nc2)CC1` [Example 116, 1-(4-(5-methyl-3-((6-(trifluoromethyl)pyridin-3-yl)oxy)pyrazin-2-yl)piperidin-1-yl)prop-2-en-1-one], the IC50 in experiment [2] worked out at 0.022 µM.
Consider `C=CC(=O)N1CCN(c2nccnc2C(=O)NC2CCCC2)CC1` [Example 102, 3-(4-acryloylpiperazin-1-yl)-N-cyclopentylpyrazine-2-carboxamide], for which the IC50 was 0.039 µM in experiment [1] and 1.6 µM in experiment [2].
Regarding `C=CC(=O)N[C@H]1C[C@H](Nc2nccnc2Nc2ccc(C(F)(F)F)cc2)C1` [Example 4, N-((1r,3r)-3-((3-((4-(trifluoromethyl)phenyl)amino)pyrazin-2-yl)amino)cyclobutyl) acrylamide], the IC50 is 0.008 µM in experiment [1] and 23.9 µM in experiment [2].
For the compound `C=CC(=O)N1CCN(c2nccnc2Nc2ccc(C(F)(F)F)cc2)C[C@H]1C(N)=O` [Example 19, (S)-1-acryloyl-4-(3-((4-(trifluoromethyl)phenyl)amino)pyrazin-2-yl)piperazine-2-carboxamide], the IC50 in experiment [1] and in experiment [2] was above 20 µM throughout.
For the compound `C=C(F)C(=O)N1CC(Nc2nccnc2N2CC(c3ccc(F)cc3)C2)C1` [Example 109, 2-fluoro-1-(3-((3-(3-(4-fluorophenyl)azetidin-1-yl)pyrazin-2-yl)amino)azetidin-1-yl)prop-2-en-1-one], the IC50 in experiment [2] was above 10 µM.
`C=CC(=O)N1CC(Nc2nccnc2N2CC(c3ccc(F)cc3)C2)C1` [Example 108, 1-(3-((3-(3-(4-fluorophenyl)azetidin-1-yl)pyrazin-2-yl)amino)azetidin-1-yl)prop-2-en-1-one] displayed an IC50 in experiment [2] above 10 µM.
The same measure, in the same setting: with `C=C(F)C(=O)N1CCC(c2ncc(C)nc2Oc2ccc(C(F)(F)F)nc2)CC1` [Example 117, 2-fluoro-1-(4-(5-methyl-3-((6-(trifluoromethyl)pyridin-3-yl)oxy)pyrazin-2-yl)piperidin-1-yl)prop-2-en-1-one] the figure was 0.158 µM; with `C=CC(=O)N1CCC(c2nccn(-c3ncc(C(F)(F)F)cn3)c2=O)CC1` [Example 118, 3-(1-acryloylpiperidin-4-yl)-1-(5-(trifluoromethyl)pyrimidin-2-yl)pyrazin-2(1H)-one], above 10 µM.
